This passage reports % of control, % of inhibition and % of engagement results from ChEMBL document CHEMBL5465560, “Selectivity Literature for EUbOPEN Chemogenomic Library” (2024).

Test [1] addresses T1, Hormonally up-regulated neu tumor-associated kinase (Homo sapiens) (UniProt P57058).
T1 sequence (whole entry): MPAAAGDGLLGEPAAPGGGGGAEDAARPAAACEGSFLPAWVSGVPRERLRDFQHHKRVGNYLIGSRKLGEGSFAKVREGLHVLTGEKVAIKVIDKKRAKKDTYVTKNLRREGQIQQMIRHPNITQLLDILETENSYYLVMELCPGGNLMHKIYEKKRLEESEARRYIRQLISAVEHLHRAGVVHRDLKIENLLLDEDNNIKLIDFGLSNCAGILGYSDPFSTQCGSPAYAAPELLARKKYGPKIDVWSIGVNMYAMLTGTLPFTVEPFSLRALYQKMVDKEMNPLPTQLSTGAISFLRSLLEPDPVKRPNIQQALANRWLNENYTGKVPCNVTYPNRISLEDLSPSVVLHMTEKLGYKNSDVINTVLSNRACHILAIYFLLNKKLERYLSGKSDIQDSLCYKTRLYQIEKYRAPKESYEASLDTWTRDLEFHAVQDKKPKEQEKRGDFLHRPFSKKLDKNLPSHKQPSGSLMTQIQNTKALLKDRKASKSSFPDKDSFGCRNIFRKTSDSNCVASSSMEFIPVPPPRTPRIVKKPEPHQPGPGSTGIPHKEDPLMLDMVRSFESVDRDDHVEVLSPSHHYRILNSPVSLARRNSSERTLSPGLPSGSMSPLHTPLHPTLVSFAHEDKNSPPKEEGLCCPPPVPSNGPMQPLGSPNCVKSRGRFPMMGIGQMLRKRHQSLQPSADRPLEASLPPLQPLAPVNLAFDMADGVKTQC
Nature of the test: Selectivity interaction (KinomeScan (DiscoverX)) EUB0000092b HUNK. Particulars: at 10 µM.

For test [2], the target named is Protein-tyrosine kinase 6 (Homo sapiens, UniProt Q13882). Nature of the test: Selectivity interaction (KinomeScan (DiscoverX)) EUB0001049a PTK6. The conditions noted are these: at 1 µM.
Chain of Protein-tyrosine kinase 6 (Q13882 whole entry, looked up): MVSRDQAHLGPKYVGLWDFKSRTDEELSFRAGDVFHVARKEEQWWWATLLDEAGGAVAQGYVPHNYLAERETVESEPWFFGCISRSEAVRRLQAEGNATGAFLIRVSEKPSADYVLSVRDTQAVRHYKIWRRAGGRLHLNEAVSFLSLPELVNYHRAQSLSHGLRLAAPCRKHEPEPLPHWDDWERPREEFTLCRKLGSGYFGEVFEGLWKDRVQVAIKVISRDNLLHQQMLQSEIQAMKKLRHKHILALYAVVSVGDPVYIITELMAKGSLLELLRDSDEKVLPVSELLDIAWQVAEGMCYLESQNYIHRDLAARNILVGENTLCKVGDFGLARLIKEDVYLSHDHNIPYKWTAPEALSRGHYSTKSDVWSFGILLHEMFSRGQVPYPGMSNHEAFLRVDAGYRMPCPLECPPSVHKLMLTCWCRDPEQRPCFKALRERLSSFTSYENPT
For test [3], the target named is T2, Serine/threonine-protein kinase D3 (Homo sapiens) (UniProt O94806).
T2 sequence (whole entry): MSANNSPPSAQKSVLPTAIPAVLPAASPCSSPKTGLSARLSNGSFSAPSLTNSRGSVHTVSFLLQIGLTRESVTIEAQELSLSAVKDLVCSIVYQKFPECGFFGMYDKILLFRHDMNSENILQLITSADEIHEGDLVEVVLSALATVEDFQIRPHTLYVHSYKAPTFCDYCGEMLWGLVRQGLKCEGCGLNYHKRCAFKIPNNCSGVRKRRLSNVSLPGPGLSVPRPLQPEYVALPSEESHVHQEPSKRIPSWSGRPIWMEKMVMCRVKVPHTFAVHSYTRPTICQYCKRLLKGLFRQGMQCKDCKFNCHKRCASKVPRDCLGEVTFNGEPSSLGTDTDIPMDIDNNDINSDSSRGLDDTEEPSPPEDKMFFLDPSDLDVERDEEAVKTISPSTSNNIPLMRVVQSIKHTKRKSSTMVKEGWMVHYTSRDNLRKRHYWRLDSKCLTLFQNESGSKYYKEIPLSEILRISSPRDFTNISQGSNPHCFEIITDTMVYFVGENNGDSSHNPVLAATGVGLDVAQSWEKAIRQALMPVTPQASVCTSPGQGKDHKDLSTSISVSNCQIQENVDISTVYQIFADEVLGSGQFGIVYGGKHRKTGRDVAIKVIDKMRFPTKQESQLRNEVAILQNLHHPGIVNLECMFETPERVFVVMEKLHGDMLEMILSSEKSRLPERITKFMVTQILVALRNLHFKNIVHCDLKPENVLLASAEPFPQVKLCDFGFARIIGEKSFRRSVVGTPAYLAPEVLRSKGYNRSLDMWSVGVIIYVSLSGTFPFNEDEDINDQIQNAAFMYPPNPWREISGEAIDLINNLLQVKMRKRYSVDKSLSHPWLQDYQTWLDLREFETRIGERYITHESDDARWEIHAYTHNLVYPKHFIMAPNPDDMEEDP
Nature of the test: Selectivity interaction (KinomeScan (DiscoverX)) EUB0000655a PRKD3. The conditions noted are these: at 10 µM.

In test [4] the target is Rho-associated protein kinase 2 (Homo sapiens, UniProt O75116). Nature of the test: Selectivity interaction (Kinase screening (Upstate/Millipore)) EUB0000604a ROCK2.
Chain of Rho-associated protein kinase 2 (O75116 whole entry, looked up): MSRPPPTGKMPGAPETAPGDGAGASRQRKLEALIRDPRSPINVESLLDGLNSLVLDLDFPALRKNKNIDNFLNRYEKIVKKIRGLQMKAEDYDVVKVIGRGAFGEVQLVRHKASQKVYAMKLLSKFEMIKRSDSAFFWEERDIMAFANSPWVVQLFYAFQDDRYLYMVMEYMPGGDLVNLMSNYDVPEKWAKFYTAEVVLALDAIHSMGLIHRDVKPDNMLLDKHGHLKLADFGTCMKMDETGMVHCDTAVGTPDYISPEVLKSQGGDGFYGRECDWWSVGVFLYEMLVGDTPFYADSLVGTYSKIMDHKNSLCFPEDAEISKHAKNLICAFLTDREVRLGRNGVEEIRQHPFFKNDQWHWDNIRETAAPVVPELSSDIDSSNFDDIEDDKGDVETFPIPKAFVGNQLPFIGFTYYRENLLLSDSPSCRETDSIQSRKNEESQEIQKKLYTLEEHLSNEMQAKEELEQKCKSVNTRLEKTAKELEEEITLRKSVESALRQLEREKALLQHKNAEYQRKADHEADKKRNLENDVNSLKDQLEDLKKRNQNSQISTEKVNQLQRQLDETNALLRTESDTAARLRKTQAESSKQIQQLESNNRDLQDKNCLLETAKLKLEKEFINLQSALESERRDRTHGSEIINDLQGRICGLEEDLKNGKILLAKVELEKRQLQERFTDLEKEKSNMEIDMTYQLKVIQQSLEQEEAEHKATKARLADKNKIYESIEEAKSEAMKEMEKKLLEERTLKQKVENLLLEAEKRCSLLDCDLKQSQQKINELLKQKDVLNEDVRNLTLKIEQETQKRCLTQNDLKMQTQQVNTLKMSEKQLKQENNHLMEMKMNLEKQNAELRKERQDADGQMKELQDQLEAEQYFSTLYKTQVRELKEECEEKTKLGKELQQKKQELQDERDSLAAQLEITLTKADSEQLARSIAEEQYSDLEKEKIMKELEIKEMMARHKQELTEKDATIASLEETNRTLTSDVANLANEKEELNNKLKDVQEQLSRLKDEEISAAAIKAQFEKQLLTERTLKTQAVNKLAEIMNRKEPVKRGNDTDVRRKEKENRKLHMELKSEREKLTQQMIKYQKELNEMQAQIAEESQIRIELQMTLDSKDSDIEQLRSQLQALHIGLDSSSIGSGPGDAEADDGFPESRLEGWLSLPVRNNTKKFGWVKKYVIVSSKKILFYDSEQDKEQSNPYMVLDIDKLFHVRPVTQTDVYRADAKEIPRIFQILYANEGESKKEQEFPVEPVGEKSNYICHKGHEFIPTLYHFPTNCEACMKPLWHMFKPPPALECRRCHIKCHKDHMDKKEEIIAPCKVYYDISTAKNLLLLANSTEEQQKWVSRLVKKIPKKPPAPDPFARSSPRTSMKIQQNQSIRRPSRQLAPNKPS
For test [5], the target named is T3, Serine/threonine-protein kinase TAO3 (Homo sapiens) (UniProt Q9H2K8).
T3 sequence (whole entry): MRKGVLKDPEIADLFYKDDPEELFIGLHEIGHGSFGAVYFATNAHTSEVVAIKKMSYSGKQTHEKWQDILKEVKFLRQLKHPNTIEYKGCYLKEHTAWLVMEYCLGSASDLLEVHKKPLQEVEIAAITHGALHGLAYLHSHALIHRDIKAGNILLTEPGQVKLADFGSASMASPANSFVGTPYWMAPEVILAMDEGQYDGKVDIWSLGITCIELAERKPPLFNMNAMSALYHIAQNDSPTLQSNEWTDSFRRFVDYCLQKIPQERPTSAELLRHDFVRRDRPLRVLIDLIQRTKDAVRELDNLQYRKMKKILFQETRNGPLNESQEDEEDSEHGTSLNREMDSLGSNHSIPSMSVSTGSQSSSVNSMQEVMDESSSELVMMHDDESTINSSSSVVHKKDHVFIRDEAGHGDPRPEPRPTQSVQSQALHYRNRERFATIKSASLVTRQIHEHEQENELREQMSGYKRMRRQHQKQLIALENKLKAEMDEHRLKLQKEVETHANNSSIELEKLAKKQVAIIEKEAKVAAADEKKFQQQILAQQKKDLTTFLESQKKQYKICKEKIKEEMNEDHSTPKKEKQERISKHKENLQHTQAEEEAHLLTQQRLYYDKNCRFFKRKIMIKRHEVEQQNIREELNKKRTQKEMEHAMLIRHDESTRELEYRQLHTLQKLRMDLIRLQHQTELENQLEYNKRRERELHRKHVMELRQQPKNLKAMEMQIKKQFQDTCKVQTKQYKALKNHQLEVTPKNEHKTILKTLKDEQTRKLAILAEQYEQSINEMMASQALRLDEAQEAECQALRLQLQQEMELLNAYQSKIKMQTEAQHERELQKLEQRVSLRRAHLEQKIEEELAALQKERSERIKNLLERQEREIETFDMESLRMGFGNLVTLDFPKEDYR
Nature of the test: Selectivity interaction (KinomeScan (DiscoverX)) EUB0000045b TAOK3.

Test [6] concerns the target Phosphatidylinositol 4-kinase beta (Homo sapiens, UniProt Q9UBF8). Put plainly: Selectivity interaction (KinomeScan (DiscoverX)) EUB0001619a PI4KB. The conditions noted are these: at 1 µM.
In test [7] the target is Phosphatidylinositol 4,5-bisphosphate 3-kinase catalytic subunit beta isoform (Homo sapiens) (UniProt P42338). Nature of the test: Selectivity interaction (Kinase panel (KiNativ target engagement assay in Jurkat cells)) EUB0001635a PIK3CB. Type of test: cell-based. Particulars: Selectivity number of off-targets 0.0, Selectivity number of targets 233.0, Source Knowledge https://www.sciencedirect.com/science/article/pii/S2451945619300674?via%3Dihub, at 1 µM.
Chain of Phosphatidylinositol 4,5-bisphosphate 3-kinase catalytic subunit beta isoform (Homo sapiens) (P42338 whole entry, looked up, canonical isoform): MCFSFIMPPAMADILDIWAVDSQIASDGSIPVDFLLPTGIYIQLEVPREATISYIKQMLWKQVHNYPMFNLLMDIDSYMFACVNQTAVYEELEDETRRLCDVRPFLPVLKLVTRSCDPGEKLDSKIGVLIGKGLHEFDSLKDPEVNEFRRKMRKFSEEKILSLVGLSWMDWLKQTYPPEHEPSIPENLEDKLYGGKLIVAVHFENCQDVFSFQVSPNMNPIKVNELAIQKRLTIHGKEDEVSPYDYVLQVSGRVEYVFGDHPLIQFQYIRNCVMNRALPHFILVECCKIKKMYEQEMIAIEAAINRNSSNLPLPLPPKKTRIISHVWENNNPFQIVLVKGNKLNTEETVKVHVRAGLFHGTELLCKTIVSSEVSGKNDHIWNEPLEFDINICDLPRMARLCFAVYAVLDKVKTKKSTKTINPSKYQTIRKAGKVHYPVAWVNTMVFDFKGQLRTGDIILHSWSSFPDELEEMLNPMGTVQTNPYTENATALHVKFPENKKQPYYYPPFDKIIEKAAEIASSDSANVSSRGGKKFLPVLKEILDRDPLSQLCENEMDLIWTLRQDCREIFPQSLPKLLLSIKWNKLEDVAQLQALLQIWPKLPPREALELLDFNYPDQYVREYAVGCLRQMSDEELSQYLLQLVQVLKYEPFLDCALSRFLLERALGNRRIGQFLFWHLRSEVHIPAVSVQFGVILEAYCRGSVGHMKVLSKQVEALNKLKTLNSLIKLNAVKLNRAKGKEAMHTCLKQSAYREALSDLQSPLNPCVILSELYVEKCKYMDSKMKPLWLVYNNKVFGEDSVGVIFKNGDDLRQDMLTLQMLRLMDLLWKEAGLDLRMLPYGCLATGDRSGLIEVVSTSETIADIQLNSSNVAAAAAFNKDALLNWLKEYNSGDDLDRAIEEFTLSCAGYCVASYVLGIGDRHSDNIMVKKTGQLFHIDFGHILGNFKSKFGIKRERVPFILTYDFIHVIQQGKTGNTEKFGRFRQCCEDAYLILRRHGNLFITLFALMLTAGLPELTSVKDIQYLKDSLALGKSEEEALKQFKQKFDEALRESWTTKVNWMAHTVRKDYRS

Chain of Phosphatidylinositol 4-kinase beta (Q9UBF8 2-816 limits assumed): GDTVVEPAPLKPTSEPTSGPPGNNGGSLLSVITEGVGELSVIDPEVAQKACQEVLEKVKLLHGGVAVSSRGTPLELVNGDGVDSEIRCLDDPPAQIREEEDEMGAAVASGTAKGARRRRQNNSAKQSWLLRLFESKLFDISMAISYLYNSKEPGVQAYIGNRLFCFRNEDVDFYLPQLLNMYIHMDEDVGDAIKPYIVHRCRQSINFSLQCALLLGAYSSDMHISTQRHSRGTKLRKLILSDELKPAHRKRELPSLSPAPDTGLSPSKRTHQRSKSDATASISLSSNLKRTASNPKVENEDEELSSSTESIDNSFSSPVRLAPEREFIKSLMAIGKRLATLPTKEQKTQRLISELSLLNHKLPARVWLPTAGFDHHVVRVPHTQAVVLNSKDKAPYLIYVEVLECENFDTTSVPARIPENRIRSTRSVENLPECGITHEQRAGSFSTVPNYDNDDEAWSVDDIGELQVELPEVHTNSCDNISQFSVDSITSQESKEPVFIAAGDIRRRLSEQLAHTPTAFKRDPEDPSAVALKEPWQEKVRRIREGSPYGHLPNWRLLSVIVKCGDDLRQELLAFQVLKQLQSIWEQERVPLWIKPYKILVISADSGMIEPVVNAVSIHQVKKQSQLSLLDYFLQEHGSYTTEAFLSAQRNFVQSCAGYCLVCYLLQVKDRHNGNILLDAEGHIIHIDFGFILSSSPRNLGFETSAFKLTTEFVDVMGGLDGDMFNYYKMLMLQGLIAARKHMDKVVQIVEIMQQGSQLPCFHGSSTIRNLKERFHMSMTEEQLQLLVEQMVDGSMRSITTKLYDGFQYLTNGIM

In test [1], `CCC(=O)N1CCN(c2ccc(-n3c(=O)ccc4cnc5ccc(-c6cnc7ccccc7c6)cc5c43)cc2C(F)(F)F)CC1` registered a % of control of 91%. `COc1cc(Nc2nc(C)cc(-c3cnn4nc(OC)ccc34)n2)cc(C(F)(F)F)c1` yielded a % of control in test [2] of 100%.

In turn, `CN(C)CCOc1ccc(-c2nc(-c3ccncc3)c(-c3ccc4c(c3)CC/C4=N\O)[nH]2)cc1` had a % of control in test [3] of 40%.

In test [4], `Cc1cnc(Nc2ccc(F)cc2Cl)nc1-c1c[nH]c(C(=O)N[C@H](CO)c2cccc(Cl)c2)c1` registered a % of inhibition of 57%.

Take `C=CC(=O)Nc1cc(-n2c(=O)ccc3cnc4ccc(-c5ccc(NS(C)(=O)=O)cc5)cc4c32)ccc1C`: the % of control in test [5] (at 1 µM) and in test [5] (at 10 µM) was 100% in each case.

With `N#Cc1cccc(-c2c[nH]c3ncnc(N4CCOCC4)c23)c1`, the % of control in test [6] was determined as 71%. Take `C=CC(=O)Nc1ccc(C(=O)Nc2[nH]nc3c2CN(C(=O)N[C@H](CN(C)C)c2ccccc2)C3(C)C)cc1`: the % of engagement in test [7] was -21.2%.
